A short description of the test: Inhibition of FTase.

For the compound `N#Cc1ccc(COCc2cncn2Cc2ccc(C#N)nc2)c(-c2ccc3c(c2)OCO3)c1`, the negative-log IC50 (pIC50) (as a rule, the IC50 on a negative log10 scale, so that one unit is a factor of ten) was found to be 8.52. The value for `Cn1c(=O)cc(-c2cccc(Cl)c2)c2cc(C(NC=O)c3cncn3Cc3ccc(C#N)cc3)ccc21` (centres undefined) was 8.68; that for `N#Cc1ccc(Cn2cncc2COCc2ccc(C#N)cc2-c2ccc3ccccc3c2)cc1` was 9.04. In the case of `COc1cccc(-c2cc(C#N)ccc2COCc2cncn2Cc2ccc(C#N)nc2)c1`, the negative logarithm of the IC50 (pIC50) is 8.82. In the case of `COc1ccc(-c2cc(C#N)ccc2COCc2cncn2Cc2ccc(C#N)cc2)cn1`, the pIC50 turned out to be 8.12.

Turning to `N#Cc1ccc(Cn2cncc2COCc2ccc(C#N)cc2-c2cccc3c2OCO3)cc1`, the pIC50 came to 9.09. For `N#Cc1ccc(OCc2cncn2Cc2ccc(C#N)c(-c3cccc4ccccc34)c2)nc1` the value was 9.05; for `Cn1c(=O)cc(-c2cccc(Cl)c2)c2cc(COCc3cncn3Cc3ccc(C#N)cc3)ccc21`, 7.05. For `N#Cc1ccc(Cn2cncc2COCc2ccc(C#N)cc2-c2cccc(Cl)c2)cc1` the value was 9.43; for `N#Cc1ccc(Cn2cncc2COc2ccc(Cl)cc2-c2cccc(Cl)c2)cc1`, 8.4. The value for `Cn1c(=O)cc(-c2cccc(Cl)c2)c2cc(C(O)c3cncn3Cc3ccc(C#N)cc3)ccc21` (centres undefined) was 7.33. Compound `N#Cc1ccc(COCc2cncn2Cc2ccc(C#N)cc2-c2cccc(Cl)c2)c(-c2cccc(Cl)c2)c1` showed a pIC50 of 8. Consider `CCOc1ccc(-c2cc(C#N)ccc2COCc2cncn2Cc2ccc(C#N)cc2)cc1`, for which the pIC50 is given as 8.9. Regarding `N#Cc1ccc(Cn2cncc2COCc2ccc(C#N)cc2-c2cccc(Cl)c2)nc1`, the pIC50 is 8.77.

For the compound `N#Cc1ccc(Cn2cncc2COCc2cnc(C#N)cc2-c2cccc(Cl)c2)cc1`, the pIC50 is 8.37. The value for `CC(C)(C)c1ccc(-c2cc(C#N)ccc2COCc2cncn2Cc2ccc(C#N)cc2)cc1` was 9.36; that for `N#Cc1ccc(Cn2cncc2COc2ccc(C#N)c(-c3cccc4ccccc34)c2)cc1` was 9.42; that for `N#Cc1ccc(Cn2cncc2COCc2ccc(C#N)cc2-c2cccc3ccccc23)cc1` was 8.89. Take `Cn1c(=O)cc(-c2cccc(Cl)c2)c2cc(C(N)c3cncn3Cc3ccc(C#N)cc3)ccc21` (centres undefined): the pIC50 worked out at 8.42. The compound `N#Cc1ccc(Cn2cncc2COCc2ccc(C#N)cc2-c2ccc(Cl)c(Cl)c2)cc1` registered a pIC50 of 9.43. The compound `N#Cc1ccc(Cn2cncc2Cn2cc(C#N)c(-c3cccc4ccccc34)c2)cc1` returned a pIC50 of 9.24. The value for `CCOc1cccc(-c2cc(C#N)ccc2COCc2cncn2Cc2ccc(Cl)cc2)c1` was 8.85.

In the case of `N#Cc1ccc(Cn2cncc2Cn2ccc3c(C#N)c(-c4cccc5ccccc45)ccc32)cc1`, the pIC50 was 9.82. Turning to `N#Cc1ccc(Cn2cncc2COCc2ccc(C#N)c(-c3cccc4ccccc34)c2)cc1`, the pIC50 is reported as 8.32. Take `CS(=O)(=O)c1ccc(Cn2cncc2COCc2ccc(C#N)cc2-c2cccc(Cl)c2)cc1`: the pIC50 was determined as 7.02.

In turn, `N#Cc1ccc(Cn2cncc2COCc2ccc(C#N)cc2-c2ccc(C(F)(F)F)cc2)cc1` displayed a negative logarithm of the IC50 (pIC50) of 8.37. For `N#Cc1ccc(Cn2cncc2COCc2ccc(C#N)cc2-c2ccc3c(c2)OCO3)nc1` the value was 8.33. The compound `N#Cc1ccc(OCc2cncn2Cc2ccc(C#N)c(-c3cccc4ccccc34)c2)cc1` registered a pIC50 of 9.49. For `N#Cc1ccc(Cn2cncc2COCc2ccc(C#N)cc2-c2ccc(OC(F)(F)F)cc2)cc1` the value was 9.19; for `N#Cc1ccc(COCc2cncn2Cc2ccc(C#N)cc2-c2cccc3ccccc23)c(-c2ccc3c(c2)OCO3)c1`, 8.17; for `N#Cc1ccc(Cn2cncc2CNCc2ccc(C#N)c(-c3cccc4ccccc34)c2)cc1`, 8.19.

As for `N#Cc1cn(Cc2cncn2Cc2ccc3c(c2)OCO3)cc1-c1cccc2ccccc12`, the pIC50 was 8.21. This pIC50 and that of the compound before are within 0.2 log units of each other. Take `Cn1c(=O)cc(-c2cccc(Cl)c2)c2cc(C(=O)c3cncn3Cc3ccc(C#N)cc3)ccc21`: the pIC50 came out at 7.54. `N#Cc1ccc(Cn2cncc2COCc2ccc(Cl)cc2-c2cccc(Cl)c2)cc1` showed a pIC50 of 9.21.

In the case of `CC(=O)c1ccc(-c2cc(C#N)ccc2COCc2cncn2Cc2ccc(C#N)cc2)cc1`, the pIC50 was found to be 8.89. For the compound `N#Cc1ccc(Cn2cncc2COCc2ccc(C#N)cc2-c2cccc(OC(F)(F)F)c2)cc1`, the pIC50 is on record as 9.31. The value for `CCOc1cccc(-c2cc(C#N)ccc2COCc2cncn2Cc2ccc(C#N)nc2)c1` was 9.24; that for `COc1cccc(-c2cc(C#N)ccc2COCc2cncn2Cc2ccc(Cl)cc2)c1` was 8.66.

For the compound `COc1cccc(-c2cc(C#N)ccc2COCc2cncn2Cc2ccc(C#N)cn2)c1`, the pIC50 came out at 8.36. Compound `Cc1ccc(-c2cc(C#N)ccc2COCc2cncn2Cc2ccc(C#N)cc2)cc1C` came in with a pIC50 of 9.22. The value for `N#Cc1ccc(COCc2cncn2Cc2ccc(Cl)cc2)c(-c2ccc3c(c2)OCO3)c1` was 8.08; that for `N#Cc1ccc(COCc2cncn2Cc2ccc(C#N)nc2)c(-c2cccc(Cl)c2)c1` was 8.52. The value for `N#Cc1ccc(COCc2cncn2Cc2ccc(C#N)cc2-c2cccc3ccccc23)cc1` was 9.02; that for `CC(=O)Nc1cccc(-c2cc(C#N)ccc2COCc2cncn2Cc2ccc(C#N)cc2)c1` was 7.89.

The values are drawn from ChEMBL document CHEMBL1154074, “3D-QSAR with the aid of pharmacophore search and docking-based alignments for farnesyltransferase inhibitors” (Eur J Med Chem, 2009).
